First: CCOc1nc(C)c2cc(OC)c(OC)cc2c1C(=O)OC
Second: COc1cc(CNc2nc(C)nc(C)c2Cl)ccc1O
The melting point of the first is lower: 147 to 149 °C for the first, 179 to 182 °C for the second.

First: O=C1N=CNC(O)C1C(=O)Nc1ccccc1 (stereo not given)
Second: O=C1NC(=O)C(Cc2ccc(SCCCc3ccccc3)cc2)S1 (stereo not given)
The melting point of the first is higher: 200 to 208 °C for the first, 88 to 89 °C for the second.

First: C(=C\c1nc(COc2ccc(CCn3ccnc3)cc2)co1)/c1ccccc1
Second: c1ccc(Oc2ccc(C3(Cn4cncn4)OCCCO3)cc2)cc1
The melting point of the first is higher: 165 to 166 °C for the first, 129 to 130 °C for the second.

Compared with `O=C1c2ccccc2C(=O)N1C(Cc1ccccc1)C1CC(Cc2ccccc2)=NO1` (stereo not given), `NS(=O)(=O)c1cc(CO)cc(NCc2ccccc2)c1S(=O)c1ccccc1` (stereo not given) is higher in melting point: 134 to 136 °C for the first, 213 to 214 °C for the second.

Compared with `O=C(C(=O)c1ccc(Cl)cc1Cl)c1ccncc1`, `O=C(Nc1ccc(Cl)nc1)C1=NN(c2ccc(Cl)cc2)C(c2ccc(F)cc2)C1` (stereo not given) is higher in melting point: 85 °C for the first, 191 to 193 °C for the second.

Compared with `CC(C)(C)Sc1c(CC(C)(C)C(=O)O)n(Cc2ccc(Cl)cc2)c2ccc(OCc3ccc4ccccc4c3)cc12`, `COc1cc(C(=O)NS(=O)(=O)c2ccccc2C)ccc1Cn1ccc2ccc(CC(=O)NCC3CCCC3)cc21` is lower in melting point: 213 to 214 °C for the first, 187 to 188 °C for the second.

First: COc1cc(C2C3=C(COC3=O)Nc3ccc4nc(C)sc4c32)ccc1O (stereo not given)
Second: COc1cccc2c(Cc3nc(-c4ccccc4)co3)coc12
The melting point of the first is higher: 293 to 295 °C for the first, 101 to 103 °C for the second.

Compared with `COc1ccc(CCc2c(Cl)cncc2Cl)c2c1OC(C)(C)C2`, `CC1(C)CC(=O)Nc2c(CCCN3CCN(c4nsc5ccccc45)CC3)cccc21` is higher in melting point: 128 to 133 °C for the first, 166 °C for the second.

First: CCCCOc1nc(N)nc2[nH]cnc12
Second: CCOC(=O)C=Cc1cnc(C(C)(C)C)nc1
The melting point of the first is higher: 165 °C for the first, 43 to 45 °C for the second.

First: COC(=O)CC1CC(c2cccc(C3(c4ccc(OC(F)F)cc4)N=C(N)N(C)C3=O)c2)C1 (stereo not given)
Second: COc1ccc(C(=O)C2=C(c3ccccc3)c3ccccc3C2)cc1
The melting point of the first is lower: 68 to 70 °C for the first, 114 to 115 °C for the second.

First: O=c1oc2ccc(-c3ccc(F)cc3F)cc2c(=O)n1-c1ccc(Cl)cc1F
Second: NS(=O)(=O)c1cccc(-c2cc(-c3nc(-c4ccc(C(F)(F)F)cc4)cc(C(F)F)n3)ccn2)c1
The melting point of the first is lower: 176 to 177 °C for the first, 234 °C for the second.

First: CCCCCCCCCCCCOc1ccc(C(=O)OC)cc1
Second: NC(=O)c1cc(OCCNCC(O)c2ccco2)ccc1O (stereo not given)
The melting point of the first is lower: 56 to 57 °C for the first, 169 to 171 °C for the second.

First: CC1COCc2nc3cnc4cc(C=CS(C)(=O)=O)ccc4c3n21 (stereo not given)
Second: CCOCc1nc2c(N)nc3cc(N4CCCC4=O)ccc3c2n1CC(C)(C)O
The melting point of the first is higher: 249 to 250 °C for the first, 200 to 202 °C for the second.

First: CCCCN(CCCC)c1ccc(C=CC2=C(OC)C(=CC=CC3=C(C#N)C(=C(C#N)C#N)OC3(c3ccccc3)C(F)(F)F)CC(C)(C)C2)c(OC)c1 (stereo not given)
Second: COc1cc(C(=O)C(F)(F)F)ccc1OCCCN1CCC(c2noc3cc(F)ccc23)CC1
The melting point of the first is higher: 153 to 158 °C for the first, 78 to 80 °C for the second.

First: NC(=O)c1sc2ccc(C(F)(F)F)cc2c1O
Second: COC(=O)Cc1c(F)cccc1Cl
The melting point of the first is higher: 196 to 197 °C for the first, 79 to 80 °C for the second.

First: CC(=O)c1cc2c(s1)SCCN(CCCCN1CCN(c3ncccn3)CC1)C2=O
Second: O=C(Nc1cccc2c1C(=O)c1c-2n[nH]c1-c1ccc(N2CCC(N3CCCC3)CC2)cc1)NN1CCOCC1
The melting point of the first is lower: 118 to 120 °C for the first, 247 °C for the second.

First: COc1ccc(OC)c2c1C[C@](O)(C1(C)OCCO1)CC21SCCS1
Second: CC12CCC(C(=Cc3ccc(O)cc3)C1=O)C2(C)C (stereo not given)
The melting point of the first is lower: 143 to 145 °C for the first, 220 °C for the second.

First: Clc1ccc(Nc2nc3ccccc3c3[nH]c(C4CCCCC4)nc23)cc1Cl
Second: CN(CCCOC(=O)Cc1ccccc1Nc1c(Cl)cccc1Cl)CC1(SN=O)CCCCC1
The melting point of the first is higher: 237 to 240 °C for the first, 58 to 60 °C for the second.

Compared with `CC(Oc1ncn(-c2cccc(F)c2)n1)C(=O)O` (stereo not given), `COC(=O)c1cccc(C[C@H](N)C(=O)O)c1` is higher in melting point: 177 to 179 °C for the first, over 200 °C for the second.

Compared with `CC(C)C(c1ccccc1O)N1CCOCC1` (stereo not given), `OCc1cc(N2CCOCC2)c(F)cn1` is higher in melting point: 73 to 77 °C for the first, 134 to 136 °C for the second.

Compared with `C=C(C)C(=O)NCCC(=O)Nc1cc(Cl)c(C)c(Cl)c1O`, `COc1cc(C)nc(NC(=O)NS(=O)(=O)c2cccc(NC(=O)OC(C)C)c2)n1` is higher in melting point: 150 to 152 °C for the first, 173 to 180 °C for the second.

First: Cn1ccc2c3c(c(I)cc21)C(=O)NC3=O
Second: CCOC(=O)c1cn(C2CC2)c2c(F)c(-c3cc(C)nc(C)c3)c(F)cc2c1=S
The melting point of the first is higher: 322 to 325 °C for the first, 194 to 195 °C for the second.

First: O=[N+]([O-])c1ccc(OC2OC(CO)C(O)C2O)cc1 (stereo not given)
Second: CC(C)(C)c1cc(CCc2ccccc2NC(=O)NCC2(c3ccc4c(c3)OCO4)CCCC2)cc(C(C)(C)C)c1O
The melting point of the first is lower: 156 to 158 °C for the first, 188 to 189 °C for the second.

First: CC(C)(O)C#Cc1nccs1
Second: CCC(C)(C)CNc1c(N=O)c(C)nn1C
The melting point of the first is higher: 69 to 70 °C for the first, 45 to 50 °C for the second.

First: CCOC(=O)N(CCN(C(=O)OCC)C1CCCCC1)C1CCCCC1
Second: NS(=O)(=O)c1cc2sc(C=O)cc2s1
The melting point of the first is lower: 108 °C for the first, 203 to 204 °C for the second.
